# Measurements: patent US8309718B2, “4-pyrazolyl-N-arylpyrimidin-2-amines and 4-pyrazolyl-N-heteroarylpyrimidin-2-amines as janus kinase inhibitors” (Incyte Corporation, priority 2007, dated 2012)
# Biological target: T1, human JAK2 (Homo sapiens, UniProt O60674)
# T1 construct: JAK2 (a.a. 828-1132); His tag (N); made in house; host or cells: insect cells (baculovirus)
# Assay: In vitro JAK kinase assay (HTRF, phosphorylation of biotinylated peptide)
# Assay type: biochemical
# Details: catalytic domain a.a. 828-1132, 30 μM ATP, 500 nM peptide, room temperature 1 hr; read-out: JAK-2 IC50
# Procedure, shortened: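 His-tagged human JAK2 catalytic domain (a.a. 828-1132), baculovirus/insect-cell expressed; phosphorylation of 500 nM biotinylated peptide at 30 μM ATP in 50 mM Tris pH 7.8, 100 mM NaCl, 5 mM DTT, 0.01% BSA. 1 h at room temperature, EDTA stop, HTRF read (Eu-Py20/SA-APC); IC50.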
# T1 sequence (O60674 828-1132): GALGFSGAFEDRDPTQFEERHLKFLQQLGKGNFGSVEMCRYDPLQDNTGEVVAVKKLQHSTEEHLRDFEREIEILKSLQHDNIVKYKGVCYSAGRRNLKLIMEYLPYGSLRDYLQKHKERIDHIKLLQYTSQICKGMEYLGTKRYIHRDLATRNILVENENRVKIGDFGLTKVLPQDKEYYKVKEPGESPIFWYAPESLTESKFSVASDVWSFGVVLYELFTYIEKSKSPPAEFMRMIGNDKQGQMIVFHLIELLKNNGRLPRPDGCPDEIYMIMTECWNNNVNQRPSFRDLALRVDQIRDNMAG
row,SMILES,IC50 [nM]
1,"N#CCC(C1CCCC1)n1cc(-c2ccnc(Nc3ccc(C(=O)N4C5CC6CC4CC(C5)O6)cc3)n2)cn1 (racemic) [Example 216, 3-cyclopentyl-3-(4-(2-(4-(2-oxa-6-azatricyclo[3.3.1.1(3,7)]dec-6-ylcarbonyl)phenyl)aminopyrimidin-4-yl)-1H-pyrazol-1-yl)propanenitrile]",< 100
2,"CN(C(=O)c1ccc(Nc2nccc(-c3cnn(C(CC#N)C4CCCC4)c3)n2)cc1)[C@H]1CC[C@@H](O)CC1 (mixture of isomers) [Example 217, 4-(4-(1-(2-cyano-1-cyclopentylethyl)-1H-pyrazol-4-yl)pyrimidin-2-ylamino)-N-(cis-4-hydroxycyclohexyl)-N-methylbenzamide]",< 100
3,"CN(C(=O)c1ccc(Nc2nccc(-c3cnn(C(CC#N)C4CCCC4)c3)n2)cc1)C1CCOCC1 (racemic) [Example 218, 4-(4-(1-(2-cyano-1-cyclopentylethyl)-1H-pyrazol-4-yl)pyrimidin-2-ylamino)-N-methyl-N-(tetrahydro-2H-pyran-4-yl)benzamide]",< 100
4,"COC1CCN(C(=O)c2ccc(Nc3nccc(-c4cnn(C(CC#N)C5CCCC5)c4)n3)cc2)CC1 (racemic) [Example 221, 3-cyclopentyl-3-(4-(2-(4-(4-methoxypiperidine-1-carbonyl)phenylamino)pyrimidin-4-yl)-1H-pyrazol-1-yl)propanenitrile]",< 100
5,"N#CCC(C1CCCC1)n1cc(-c2ccnc(Nc3ccc(C(=O)N[C@H]4CC[C@@H](O)CC4)cc3)n2)cn1 (mixture of isomers) [Example 223, 4-(4-(1-(2-cyano-1-cyclopentylethyl)-1H-pyrazol-4-yl)pyrimidin-2-ylamino)-N-(cis-4-hydroxycyclohexyl)benzamide]",< 100
6,"CC(=O)N1CCN(C(=O)c2ccc(Nc3nccc(-c4cnn(C(CC#N)C5CCCC5)c4)n3)cc2)CC1 (racemic) [Example 224, 3-(4-(2-(4-(4-acetylpiperazine-1-carbonyl)phenylamino)pyrimidin-4-yl)-1H-pyrazol-1-yl)-3-cyclopentylpropanenitrile]",< 100
7,"CN1CCC(NC(=O)c2ccc(Nc3nccc(-c4cnn(C(CC#N)C5CCCC5)c4)n3)cc2)CC1 (racemic) [Example 227, 4-(4-(1-(2-cyano-1-cyclopentylethyl)-1H-pyrazol-4-yl)pyrimidin-2-ylamino)-N-(1-methylpiperidin-4-yl)benzamide]",< 100
8,"N#CCC(C1CCCC1)n1cc(-c2ccnc(Nc3ccc(C(=O)N4CCC5(CC4)CNC(=O)C5)cc3)n2)cn1 (racemic) [Example 228, 3-cyclopentyl-3-(4-(2-(4-(3-oxo-2,8-diazaspiro[4.5]decane-8-carbonyl)phenylamino)pyrimidin-4-yl)-1H-pyrazol-1-yl)propanenitrile]",< 100
9,"CCOC(=O)N1CCC(NC(=O)c2ccc(Nc3nccc(-c4cnn(C(CC#N)C5CCCC5)c4)n3)cc2)CC1 (racemic) [Example 231, Ethyl 4-(4-(4-(1-(2-cyano-1-cyclopentylethyl)-1H-pyrazol-4-yl)pyrimidin-2-ylamino)benzamido)piperidine-1-carboxylate]",< 100
10,"CN(C)C(=O)C1CCN(C(=O)c2ccc(Nc3nccc(-c4cnn(C(CC#N)C5CCCC5)c4)n3)cc2)CC1 (racemic) [Example 234, 1-(4-(4-(1-(2-cyano-1-cyclopentylethyl)-1H-pyrazol-4-yl)pyrimidin-2-ylamino)benzoyl)-N,N-dimethylpiperidine-4-carboxamide]",< 100
11,"CN1CCN(CC(=O)Nc2cccc(Nc3nccc(-c4cnn(C(CC#N)C5CCCC5)c4)n3)c2)CC1 (racemic) [Example 236, N-(3-(4-(1-(2-cyano-1-cyclopentylethyl)-1H-pyrazol-4-yl)pyrimidin-2-ylamino)phenyl)-2-(4-methylpiperazin-1-yl)acetamide]",< 100
12,"N#CCC(C1CCCC1)n1cc(-c2ccnc(Nc3cccc(NC(=O)CN4CCNC(=O)C4)c3)n2)cn1 (racemic) [Example 238, N-(3-(4-(1-(2-cyano-1-cyclopentylethyl)-1H-pyrazol-4-yl)pyrimidin-2-ylamino)phenyl)-2-(3-oxopiperazin-1-yl)acetamide]",< 100
13,"N#CCC(C1CCCC1)n1cc(-c2ccnc(Nc3cccc(NC(=O)CN4CCC(O)CC4)c3)n2)cn1 (racemic) [Example 239, N-(3-(4-(1-(2-cyano-1-cyclopentylethyl)-1H-pyrazol-4-yl)pyrimidin-2-ylamino)phenyl)-2-(4-hydroxypiperidin-1-yl)acetamide]",< 100
14,"N#CCC(C1CCCC1)n1cc(-c2ccnc(Nc3cccc(NC(=O)CN4CCN(CCO)CC4)c3)n2)cn1 (racemic) [Example 240, N-(3-(4-(1-(2-cyano-1-cyclopentylethyl)-1H-pyrazol-4-yl)pyrimidin-2-ylamino)phenyl)-2-(4-(2-hydroxyethyl)piperazin-1-yl)acetamide]",< 100
15,"N#CCC(C1CCCC1)n1cc(-c2ccnc(Nc3cccc(NC(=O)CNCC4CC4)c3)n2)cn1 (racemic) [Example 241, N-(3-(4-(1-(2-cyano-1-cyclopentylethyl)-1H-pyrazol-4-yl)pyrimidin-2-ylamino)phenyl)-2-(cyclopropylmethylamino)acetamide]",< 100
16,"N#CCC(C1CCCC1)n1cc(-c2ccnc(Nc3cccc(NC(=O)CN4CCOCC4)c3)n2)cn1 (racemic) [Example 242, N-(3-(4-(1-(2-cyano-1-cyclopentylethyl)-1H-pyrazol-4-yl)pyrimidin-2-ylamino)phenyl)-2-morpholinoacetamide]",< 100
17,"CCNCC(=O)Nc1cccc(Nc2nccc(-c3cnn(C(CC#N)C4CCCC4)c3)n2)c1 (racemic) [Example 243, N-(3-(4-(1-(2-cyano-1-cyclopentylethyl)-1H-pyrazol-4-yl)pyrimidin-2-ylamino)phenyl)-2-(ethylamino)acetamide]",< 100

# Continued, values first:
row,IC50 [nM],SMILES
1,< 100,"N#CCC(C1CC1)n1cc(-c2ccnc(Nc3ccc(C(=O)N4CCC(O)CC4)cc3)n2)cn1 (racemic) [Example 251, 3-cyclopropyl-3-(4-(2-(4-(4-hydroxypiperidine-1-carbonyl)phenylamino)pyrimidin-4-yl)-1H-pyrazol-1-yl)propanenitrile]"
2,< 100,"N#CCC(C1CC1)n1cc(-c2ccnc(Nc3ccc(C(=O)N4[C@@H]5CC[C@H]4C[C@@H](O)C5)cc3)n2)cn1 (mixture of isomers) [Example 252, 3-cyclopropyl-3-(4-(2-(4-((3-endo)-3-hydroxy-8-azabicyclo[3.2.1]octane-8-carbonyl)phenylamino)pyrimidin-4-yl)-1H-pyrazol-1-yl)propanenitrile]"
3,< 100,"N#CCC(C1CC1)n1cc(-c2ccnc(Nc3ccc(C(=O)N4CCCC4)cc3)n2)cn1 (racemic) [Example 253, 3-cyclopropyl-3-(4-(2-(4-(pyrrolidine-1-carbonyl)phenylamino)pyrimidin-4-yl)-1H-pyrazol-1-yl)propanenitrile]"
4,< 100,"N#CCC(C1CC1)n1cc(-c2ccnc(Nc3ccc(C(=O)NC4CCOCC4)cc3)n2)cn1 (racemic) [Example 254, 4-(4-(1-(2-cyano-1-cyclopropylethyl)-1H-pyrazol-4-yl)pyrimidin-2-ylamino)-N-(tetrahydro-2H-pyran-4-yl)benzamide]"
5,< 100,"N#CCC(C1CC1)n1cc(-c2ccnc(Nc3ccc(C(=O)N4CCOCC4)cc3)n2)cn1 (racemic) [Example 260, 3-cyclopropyl-3-(4-(2-(4-(morpholine-4-carbonyl)phenylamino)pyrimidin-4-yl)-1H-pyrazol-1-yl)propanenitrile]"
6,< 100,"N#CCC(C1CC1)n1cc(-c2ccnc(Nc3ccc(C(=O)N4CCC4)cc3)n2)cn1 (racemic) [Example 261, 3-(4-(2-(4-(azetidine-1-carbonyl)phenylamino)pyrimidin-4-yl)-1H-pyrazol-1-yl)-3-cyclopropylpropanenitrile]"
7,< 100,"N#CCC(C1CC1)n1cc(-c2ccnc(Nc3ccc(C(=O)N4C5CC6CC4CC(C5)O6)cc3)n2)cn1 (racemic) [Example 262, 3-cyclopropyl-3-(4-(2-(4-(2-oxa-6-azatricyclo[3.3.1.1(3,7)]dec-6-ylcarbonyl)phenyl)aminopyrimidin-4-yl)-1H-pyrazol-1-yl)propanenitrile]"
8,< 100,"COC1CCN(C(=O)c2ccc(Nc3nccc(-c4cnn(C(CC#N)C5CC5)c4)n3)cc2)CC1 (racemic) [Example 263, 3-cyclopropyl-3-(4-(2-(4-(4-methoxypiperidine-1-carbonyl)phenylamino)pyrimidin-4-yl)-1H-pyrazol-1-yl)propanenitrile]"
9,< 100,"CN1CCN(C(=O)c2ccc(Nc3nccc(-c4cnn(C(CC#N)C5CC5)c4)n3)cc2)CC1 (racemic) [Example 267, 3-cyclopropyl-3-(4-(2-(4-(4-methylpiperazine-1-carbonyl)phenylamino)pyrimidin-4-yl)-1H-pyrazol-1-yl)propanenitrile]"
10,< 100,"CC(=O)N1CCN(C(=O)c2ccc(Nc3nccc(-c4cnn(C(CC#N)C5CC5)c4)n3)cc2)CC1 (racemic) [Example 269, 3-(4-(2-(4-(4-acetylpiperazine-1-carbonyl)phenylamino)pyrimidin-4-yl)-1H-pyrazol-1-yl)-3-cyclopropylpropanenitrile]"
11,< 100,"CCOC(=O)N1CCC(NC(=O)c2ccc(Nc3nccc(-c4cnn(C(CC#N)C5CC5)c4)n3)cc2)CC1 (racemic) [Example 272, Ethyl 4-(4-(4-(1-(2-cyano-1-cyclopropylethyl)-1H-pyrazol-4-yl)pyrimidin-2-ylamino)benzoyl)aminopiperidine-1-carboxylate]"
12,< 100,"CCS(=O)(=O)N1CC(CC#N)(n2cc(-c3ccnc(Nc4ccc(C(=O)N5CCC(N(C)C)C5)cc4)n3)cn2)C1 (racemic) [Example 282, 2-(3-(4-(2-(4-(3-(dimethylamino)pyrrolidine-1-carbonyl)phenylamino)pyrimidin-4-yl)-1H-pyrazol-1-yl)-1-(ethylsulfonyl)azetidin-3-yl)acetonitrile]"
